Entries after “also recorded” stand apart in the source; their conditions may differ.
Key:
[1] = test system: mouse distal colonic closed loops; test: Closed distal colonic loop fluid absorption in mice; format: in vivo; conditions: 10 µM intraluminal, 60 min
Description: (§1) Female CD1 mice (age 8-10 weeks) were given free access to Pedialyte (per liter: Na^+ 45 mEq, Cl^- 35 mEq, K^+ 20 mEq, dextrose 25 g; Abbott, Abbot Park, IL) but not solid food for 48 h before experiments. Mice were treated with 500 µL mineral oil once a day rectally (last dose 12 h before surgeries) during this period to evacuate the colon. Closed intestinal loops were isolated as described. Mice were anesthetized with isoflurane and body temperature was maintained during surgery at 36-38° C. using a heating pad. A small abdominal incision was made to expose the distal colon, and one closed distal colonic loop (length 1.5-2 cm) was isolated with sutures in each mouse. Loops were injected with 100 µL phosphate-buffered saline (PBS, pH: 7.4, in mM: 137 NaCl, 2.7 KCl, 8 Na2HPO4, 1.8 KH2PO4, 1 CaCl2, 0.5 MgCl2) without and with 10 µM Compound A1 and/or 10 µM tenapanor (MedChemExpress, Monmouth Junction, NJ). The abdominal incision was closed with sutures, and mice were allowed to recover from anesthesia. Colonic loops were removed at 0 and 60 min (in separate mice) and loop length and weight were measured to quantify fluid absorption. Luminal fluid was emptied with a syringe and pH was measured immediately using AB15 pH Meter (Thermo Fisher Scientific, South San Francisco, CA). In separate studies, mid-jejunal loops (length 2-3 cm, 3-4 loops per mouse) were isolated as described above, injected with 100 µL PBS without or with 10 µM Compound A1 and/or 10 µM tenapanor, and excised at 0 and 30 min to measure loop length and weight.
Closed intestinal loop studies in mice were done to study effects of Compound A1 on fluid absorption. […] Changes in luminal pH were also determined as a semi-quantitative measure of slc26a3-facilitated HCO3^- secretion / C1^- absorption, with slc26a3 inhibition predicted to reduce luminal fluid alkalinization. For these experiments, a phosphate-buffered solution (PBS) without HCO3^- / CO2 was used to avoid confounding effects of luminal carbonic anhydrases. […] Administration of the NHE3 (Na^+/H^+ exchanger 3) inhibitor tenapanor had no effect on weight/length ratio or luminal pH in distal colonic loops.

NHE3 = molecular target: T1, NHE3 (Homo sapiens, UniProt P48764); conditions: Phase 3, IBS-C, treated group (placebo 18.7 %); cited from earlier work
T1 sequence (P48764 26-834): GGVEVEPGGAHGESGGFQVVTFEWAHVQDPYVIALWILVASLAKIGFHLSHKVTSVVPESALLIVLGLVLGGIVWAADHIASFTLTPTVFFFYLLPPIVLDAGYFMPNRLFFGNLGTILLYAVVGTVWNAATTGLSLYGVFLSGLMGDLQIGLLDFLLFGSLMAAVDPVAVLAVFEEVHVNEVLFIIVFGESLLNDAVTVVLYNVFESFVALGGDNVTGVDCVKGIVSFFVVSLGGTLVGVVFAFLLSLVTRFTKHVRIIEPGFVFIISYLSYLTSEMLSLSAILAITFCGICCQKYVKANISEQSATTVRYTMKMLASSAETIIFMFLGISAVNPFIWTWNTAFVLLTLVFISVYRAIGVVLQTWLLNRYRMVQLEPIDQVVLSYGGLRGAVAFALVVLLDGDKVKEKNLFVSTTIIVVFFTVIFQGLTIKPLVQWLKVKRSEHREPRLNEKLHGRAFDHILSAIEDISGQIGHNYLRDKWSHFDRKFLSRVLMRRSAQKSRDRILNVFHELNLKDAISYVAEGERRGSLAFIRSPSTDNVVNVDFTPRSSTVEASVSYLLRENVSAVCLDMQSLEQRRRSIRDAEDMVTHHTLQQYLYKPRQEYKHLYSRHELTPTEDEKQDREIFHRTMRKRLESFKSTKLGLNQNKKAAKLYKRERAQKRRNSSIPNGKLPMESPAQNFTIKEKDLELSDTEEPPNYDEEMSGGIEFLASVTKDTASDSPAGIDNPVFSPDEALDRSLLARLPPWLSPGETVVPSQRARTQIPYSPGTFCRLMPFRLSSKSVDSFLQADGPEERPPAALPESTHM

[2] = test system: mouse mid-jejunal closed loops; test: Closed mid-jejunal loop fluid absorption in mice; format: in vivo; conditions: 10 µM intraluminal, 30 min
Description: as §1

[3] = test system: loperamide-treated wild-type mice; test: Loperamide-induced constipation model in wild-type mice; format: in vivo; conditions: 5 mg/kg oral gavage 1 hour before loperamide, wild-type mice
Description: Female CD1 mice (age 8-10 weeks) were administered loperamide (0.3 mg/kg, intraperitoneally, Sigma-Aldrich) to produce constipation. Compound A1 (DRAinh-A250) (5 mg/kg, in saline containing vehicle (5% DMSO and 10% Kolliphor HS 15; Sigma-Aldrich)), tenapanor (5 mg/kg, in vehicle), both compounds (5 mg/kg each, in vehicle), or vehicle alone were administered by oral gavage 1 hour before loperamide. After loperamide injection, mice were placed individually in metabolic cages with ad libitum access to food and water. Stool samples were collected for 3 h, and total stool weight and number of fecal pellets were quantified. To measure stool water content, stool samples were dried at 80° C. for 24 h and water content was calculated as [wet weight-dry weight]/wet weight. Similar studies were done in cystic fibrosis (CF) mice (ΔF508 homozygous) lacking functional CFTR.
Constipation Model in MiceDRAinh-A260 and DRAinh-A270 were tested in a loperamide-induced constipation model in mice. Female CD1 mice (age 8-10 weeks) were administered loperamide (0.3 mg/kg, intraperitoneally, in 5% ethanol in PBS, 0.1 mg/mL final concentration) to produce constipation and vehicle in control mice. DRAinh-A260 (5 mg/kg, in saline with 5% DMSO and 10% Kolliphor HS 15) or DRAinh-A270 (1, 3 or 10 mg/kg, in PBS with 5% DMSO and 20% (2- hydroxypropyl)-β-cyclodextrin) or vehicle alone were administered by oral gavage 1 hour before loperamide (FIG. 11A). After loperamide injection, mice were placed individually in metabolic cages with free access to food and water. Stool samples were collected for 3 hours, and total stool weight and number of fecal pellets were quantified. To measure stool water content, stool samples were dried at 80° C. for 24 hours and water content was calculated as [wet weight-dry weight]/wet weight.

Q: Which results are given for `CN1Cc2c(Cl)cc(Cl)cc2[C@H](c2cccc(S(=O)(=O)NCCOCCOCCNC(=O)NCCCCNC(=O)NCCOCCOCCNS(=O)(=O)c3cccc([C@@H]4CN(C)Cc5c(Cl)cc(Cl)cc54)c3)c2)C1` [tenapanor, reference compound]?
A: loop weight/length ratio (fluid absorption), distal colonic loops [1]: had no effect; luminal pH, distal colonic loops [1]: had no effect; combined pain and stool pattern response rate (NHE3): 27%; loop weight/length ratio (fluid absorption), mid-jejunal loops [2]: fluid absorption was abolished; also recorded: blocked absorption in jejunal; luminal fluid pH, mid-jejunal loops [2]: preventing acidification and producing slight alkalinization; three-hour stool weight, number of pellets and stool water content [3]: comparably reduced signs of constipation; three-hour stool weight, number of pellets and stool water content ([3]; listed as Tenapanor): partially prevented
